# Experimental data published in US20060135569A1, “Use of benzisoselenazolone compounds against ischemic myocardial damage” (priority 2002, published 2006).
# Marks after values point to notes of the source that are not given here.
# What was measured:
# [1] = system: arrhythmia induced by ischemia/reperfusion insults in anesthetized rats; experiment: Ischemia/reperfusion arrhythmia in anesthetized rats, oral administration; assay type: in vivo, rat; settings: for protective effect: incidence/duration of VT, VF, duration of ventricular arrhythmic / protective effect: incidence/duration of VT, duration of ventricular arrhythmic: rats; for protective effect: incidence/duration of VT, duration of ventricular arrhythmic: 100 mg/kg orally
# Experimental: IMM-004 and IMM-127 were dissolved in the solution of ethanol and PEG (ethanol: PEG (v/v)=1:9). Rats were orally administrated the compounds at volume of 10 ml/Kg. The left anterior descending coronary artery was ligated in rats for 15 min at 60 min after the administration, and then the reprefusion was achieved.
# Arrhythmic potency induced by myocardial insults was used to assess the potential protective effect of the compounds.
# KM mice = experiment: Acute toxicity study in mice; assay type: in vivo
# Experimental: Acute toxicity studies were performed with IMM-004 and IMM-127 (synthesized by ourselves). The compound was provided as powder, which was milled and suspended in 0.5% carboxymethylcellulose sodium (CMC—Na) before use.
# Male KM mice weighting 19±2 g were housed for an adaptation before use. Mice were randomly divided into groups, and each group consists of 10 animals. Mice were all fasted for 14 hrs before the administration of the tested compounds. Activity of mice in high dose group was reduced 30 min after the administration. 24 h after the administration, mice in each group were restored to normal. Mice were observed daily for a period of 7 days after the administration.
# TA98 = experiment: Ames test, strain TA98; assay type: cell-based
# Experimental: (§1) To assess the mutagenic effects of 5 compounds (IMM-004; IMM-065; IMM-127; IMM-128; IMM-313), the Ames test was performed in 4 strains (TA97; TA98; TA100; TA102). The experiment was conducted with compounds at 4 concentration levels (0.5, 5, 50 and 500 μg/dish). […]
# Na^+/Ca^2+ exchanger = target: T1, Na^+/Ca^2+ exchanger (Cavia porcellus, UniProt P48766); experiment: Na^+/Ca^2+ exchange current (INa—Ca), whole-cell patch clamp, intracellular Na^+ overload cell model; assay type: cell-based, guinea pig
# T1 construct: endogenous in cells; host or cells: freshly isolated guinea pig ventricular myocytes
# In short: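 Whole-cell patch clamp on guinea pig ventricular myocytes, Na⁺-loaded via pipette dialysis; holding −40 mV, step to +60 mV, ramp down at 80 mV·s⁻¹ to −100 mV, 0.05 Hz. K⁺, L-type Ca²⁺ and Na⁺/K⁺-ATPase blocked; INa–Ca taken as 5 mmol·L⁻¹ Ni²⁺-sensitive current.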
# TA100 = experiment: Ames test, strain TA100; assay type: cell-based
# Experimental: as §1
# [2] = Example 1 table, myocardial cell
# [3] = screening of 22 candidate compounds
compound,measurement,setting,value
"O=c1c2cc(Cl)ccc2[se]n1-c1ccccn1 [IMM-004, 5-chloro-2-(2-pyridyl)-1,2-benz-isoselenazol-3(2H)-one]","protective effect: incidence/duration of VT, VF, duration of ventricular arrhythmic",[1]; 10 mg/Kg orally,No protective effect
same,Occurrence time,[1]; 10 mg/Kg p.o.,9.3 ± 10.0 s
same,VE Duration time,[1]; 10 mg/Kg p.o.,4.7 ± 12.9 s
same,VE Incidence (%),[1]; 10 mg/Kg p.o.,100%
same,VF Duration time,[1]; 10 mg/Kg p.o.,8.8 ± 7.4 s
same,VF Incidence (%),[1]; 10 mg/Kg p.o.,22.2%
same,VT Duration time,[1]; 10 mg/Kg p.o.,30.2 ± 17.6 s
same,VT Incidence (%),[1]; 10 mg/Kg p.o.,88.9%
same,"protective effect: incidence/duration of VT, VF, duration of ventricular arrhythmic",[1]; 30 mg/Kg orally,all reduced
same,Occurrence time,[1]; 30 mg/Kg p.o.,19.6 ± 24.1 s
same,VE Duration time,[1]; 30 mg/Kg p.o.,0.4 ± 1.3 s
same,VE Incidence (%),[1]; 30 mg/Kg p.o.,66.7%
same,VF Duration time,[1]; 30 mg/Kg p.o.,3.3 ± 5.7 s
same,VF Incidence (%),[1]; 30 mg/Kg p.o.,11.1* %
same,VT Duration time,[1]; 30 mg/Kg p.o.,17.0 ± 12.6 s
same,VT Incidence (%),[1]; 30 mg/Kg p.o.,44.4** %
same,Occurrence time,[1]; 100 mg/Kg p.o.,16.4 ± 25.1 s
same,VE Duration time,[1]; 100 mg/Kg p.o.,5.5 ± 10.2 s
same,VE Incidence (%),[1]; 100 mg/Kg p.o.,66.7%
same,VF Duration time,[1]; 100 mg/Kg p.o.,3.9 ± 6.8 s
same,VF Incidence (%),[1]; 100 mg/Kg p.o.,33.3%
same,VT Duration time,[1]; 100 mg/Kg p.o.,22.7 ± 19.4 s
same,VT Incidence (%),[1]; 100 mg/Kg p.o.,55.5* %
same,"protective effect: incidence/duration of VT, duration of ventricular arrhythmic",[1],all reduced
same,mortality in the dose groups,"KM mice; all dose groups, mice",no mortality
same,TA98 +S9,TA98; 0.5 μg/dish,70.67 ± 6.85
same,TA98 −S9,TA98; 0.5 μg/dish,56.33 ± 1.25
same,TA98 +S9,TA98; 5 μg/dish,48.33 ± 11.95
same,TA98 −S9,TA98; 5 μg/dish,29.33 ± 0.94
same,TA98 +S9,TA98; 50 μg/dish,60.67 ± 26.64
same,TA98 −S9,TA98; 50 μg/dish,19.67 ± 3.29
same,TA98 +S9,TA98; 500 μg/dish,55.33 ± 15.92
same,TA98 −S9,TA98; 500 μg/dish,24.67 ± 4.71
same,Inhibitory rate of inward INa—Ca (%),Na^+/Ca^2+ exchanger; [2],44%
same,Inhibitory rate of outward INa—Ca (%),Na^+/Ca^2+ exchanger; [2],52%
same,Inhibitory rate of inward INa—Ca (%),Na^+/Ca^2+ exchanger; [3],44%
same,Inhibitory rate of outward INa—Ca (%),Na^+/Ca^2+ exchanger; [3],52* %
same,TA100 +S9,TA100; 0.5 μg/dish,191.33 ± 44.25
same,TA100 −S9,TA100; 0.5 μg/dish,121.00 ± 8.52
same,TA100 +S9,TA100; 5 μg/dish,215.33 ± 23.68
same,TA100 −S9,TA100; 5 μg/dish,58.33 ± 29.39
same,TA100 +S9,TA100; 50 μg/dish,126.00 ± 31.79
same,TA100 −S9,TA100; 50 μg/dish,89.67 ± 14.70
same,TA100 +S9,TA100; 500 μg/dish,160.00 ± 21.33
same,TA100 −S9,TA100; 500 μg/dish,78.33 ± 13.52
"O=c1c2cc(F)ccc2[se]n1-c1ccccn1 [IMM-127, 5-fluoro-2-(2-pyridyl)-1,2-benz-isoselenazol-3(2H)-one]","protective effect: incidence/duration of VT, VF, duration of ventricular arrhythmic",[1]; 10 mg/Kg orally,significantly reduced
same,Occurrence time,[1]; 10 mg/Kg p.o.,15.5 ± 21.5 s
same,VE Duration time,[1]; 10 mg/Kg p.o.,2.5 ± 6.4 s
same,VE Incidence (%),[1]; 10 mg/Kg p.o.,100%
same,VF Duration time,[1]; 10 mg/Kg p.o.,6.6 ± 7.2 s
same,VF Incidence (%),[1]; 10 mg/Kg p.o.,22.2%
same,VT Duration time,[1]; 10 mg/Kg p.o.,32.1 ± 26.1 s
same,VT Incidence (%),[1]; 10 mg/Kg p.o.,66.7%
same,"protective effect: incidence/duration of VT, VF, duration of ventricular arrhythmic",[1]; 30 mg/Kg orally,all reduced
same,Occurrence time,[1]; 30 mg/Kg p.o.,9.6 ± 9.2 s
same,VE Duration time,[1]; 30 mg/Kg p.o.,0.2 ± 0.5 s
same,VE Incidence (%),[1]; 30 mg/Kg p.o.,100%
same,VF Duration time,[1]; 30 mg/Kg p.o.,3.2 ± 5.5 s
same,VF Incidence (%),[1]; 30 mg/Kg p.o.,11.1* %
same,VT Duration time,[1]; 30 mg/Kg p.o.,18.0 ± 11.4 s
same,VT Incidence (%),[1]; 30 mg/Kg p.o.,66.7%
same,Occurrence time,[1]; 100 mg/Kg p.o.,9.0 ± 19.7 s
same,VE Duration time,[1]; 100 mg/Kg p.o.,2.2 ± 63 s
same,VE Incidence (%),[1]; 100 mg/Kg p.o.,88.9%
same,VF Duration time,[1]; 100 mg/Kg p.o.,5.1 ± 7.8 s
same,VF Incidence (%),[1]; 100 mg/Kg p.o.,22.2%
same,VT Duration time,[1]; 100 mg/Kg p.o.,31.1 ± 21.3 s
same,VT Incidence (%),[1]; 100 mg/Kg p.o.,44.4** %
same,"protective effect: incidence/duration of VT, duration of ventricular arrhythmic",[1],reduced
same,Lethal cases,"KM mice; 5 g/kg, 10 mice per group, 7 days observation",7
same,TA98 +S9,TA98; 0.5 μg/dish,73.67 ± 4.63
same,TA98 −S9,TA98; 0.5 μg/dish,93.50 ± 10.50
same,TA98 +S9,TA98; 5 μg/dish,53.00 ± 5.72
same,TA98 −S9,TA98; 5 μg/dish,85.00 ± 5.00
same,TA98 +S9,TA98; 50 μg/dish,42.33 ± 7.41
same,TA98 −S9,TA98; 50 μg/dish,89.00 ± 10.61
same,TA98 +S9,TA98; 500 μg/dish,42.67 ± 5.31
same,TA98 −S9,TA98; 500 μg/dish,96.00 ± 4.90
same,Inhibitory rate of inward INa—Ca (%),Na^+/Ca^2+ exchanger; [2],21%
same,Inhibitory rate of outward INa—Ca (%),Na^+/Ca^2+ exchanger; [2],43%
same,Inhibitory rate of inward INa—Ca (%),Na^+/Ca^2+ exchanger; [3],21%
same,Inhibitory rate of outward INa—Ca (%),Na^+/Ca^2+ exchanger; [3],43* %
same,TA100 +S9,TA100; 0.5 μg/dish,95.00 ± 10.23
same,TA100 −S9,TA100; 0.5 μg/dish,83.00 ± 14.14
same,TA100 +S9,TA100; 5 μg/dish,102.67 ± 21.06
same,TA100 −S9,TA100; 5 μg/dish,62.00 ± 10.80
same,TA100 +S9,TA100; 50 μg/dish,100.00 ± 6.16
same,TA100 −S9,TA100; 50 μg/dish,67.67 ± 22.05
same,TA100 +S9,TA100; 500 μg/dish,100.67 ± 4.49
same,TA100 −S9,TA100; 500 μg/dish,72.33 ± 23.67
